One may read the IC50 as the midpoint of a concentration-inhibition curve. Higher therefore signals weaker potency.

In the assay the target is T1, Interleukin-23 receptor (Homo sapiens, UniProt Q5VWK5).
T1 sequence (Q5VWK5 whole entry): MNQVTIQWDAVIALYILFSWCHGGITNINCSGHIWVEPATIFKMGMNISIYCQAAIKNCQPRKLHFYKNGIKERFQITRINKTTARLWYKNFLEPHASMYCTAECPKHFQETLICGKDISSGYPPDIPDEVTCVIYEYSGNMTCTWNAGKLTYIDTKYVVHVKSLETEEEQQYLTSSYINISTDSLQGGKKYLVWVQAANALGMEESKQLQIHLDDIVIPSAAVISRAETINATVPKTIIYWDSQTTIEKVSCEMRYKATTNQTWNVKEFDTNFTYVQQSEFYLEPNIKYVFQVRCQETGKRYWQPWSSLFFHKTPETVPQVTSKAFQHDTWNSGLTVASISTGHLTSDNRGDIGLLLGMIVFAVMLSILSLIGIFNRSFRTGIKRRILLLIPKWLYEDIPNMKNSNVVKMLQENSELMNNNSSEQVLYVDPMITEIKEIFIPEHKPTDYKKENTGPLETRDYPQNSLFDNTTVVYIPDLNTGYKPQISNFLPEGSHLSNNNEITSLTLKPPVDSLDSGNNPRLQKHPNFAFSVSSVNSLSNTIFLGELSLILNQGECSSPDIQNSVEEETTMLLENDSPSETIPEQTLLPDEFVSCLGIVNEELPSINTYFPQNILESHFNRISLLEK
As to the kind of experiment: Inhibition of interleukin-23 binding to human interleukin-23 receptor incubated for 2 hrs by competitive binding ELISA. (In general: An ELISA detects its analyte on a solid surface through an enzyme-linked reagent.)
Compound `CC(=O)N[C@H](CCCCNC(=O)COCC(=O)NCCCC[C@@H](NC(C)=O)C(=O)N[C@@H](CS)C(=O)N[C@@H](C)C(=O)N[C@@H](CC(=O)O)C(=O)N[C@@H](Cc1c[nH]c2ccccc12)C(=O)N[C@H](C(=O)N[C@@H](CS)C(=O)N[C@@H](Cc1ccc(O)cc1)C(=O)N[C@@H](Cc1c[nH]c2ccccc12)C(=O)N[C@@H](Cc1cnc[nH]1)C(=O)N[C@H](C(=O)N[C@@H](Cc1ccccc1)C(=O)NCC(=O)O)[C@@H](C)O)C(C)C)C(=O)N[C@@H](CS)C(=O)N[C@@H](C)C(=O)N[C@@H](CC(=O)O)C(=O)N[C@@H](Cc1c[nH]c2ccccc12)C(=O)N[C@H](C(=O)N[C@@H](CS)C(=O)N[C@@H](Cc1ccc(O)cc1)C(=O)N[C@@H](Cc1c[nH]c2ccccc12)C(=O)N[C@@H](Cc1cnc[nH]1)C(=O)N[C@H](C(=O)N[C@@H](Cc1ccccc1)C(=O)NCC(=O)O)[C@@H](C)O)C(C)C` showed an IC50 above 10000 nM.

Compound `CC(=O)N[C@@H](CS)C(=O)N[C@@H](C)C(=O)N[C@@H](CC(=O)O)C(=O)N[C@@H](Cc1c[nH]c2ccccc12)C(=O)N[C@H](C(=O)N[C@@H](CS)C(=O)N[C@@H](Cc1ccc(O)cc1)C(=O)N[C@@H](Cc1cccc2ccccc12)C(=O)N[C@@H](Cc1cnc[nH]1)C(=O)N[C@H](C(=O)N[C@@H](Cc1ccccc1)C(=O)NC(C)(C)C(N)=O)[C@@H](C)O)C(C)C` registered an IC50 above 1000 nM.

Consider `N=C(N)NCCC[C@H](NC(=O)[C@H](Cc1c[nH]c2ccccc12)NC(=O)[C@H](Cc1ccc(O)cc1)NC(=O)[C@@H]1CSCCC(=O)N[C@@H](CCC(N)=O)C(=O)N[C@@H](CC(=O)O)C(=O)N[C@@H](Cc2c[nH]c3ccccc23)C(=O)N[C@@H](CCC(N)=O)C(=O)N1)C(=O)N[C@@H](CCC(=O)O)C(=O)N[C@@H](CC(N)=O)C(=O)NCC(=O)NCCOCC(=O)N[C@H](CCCCN)C(N)=O`, for which the IC50 was 30000 nM. That is a double-digit micromolar value.

`CC(=O)NC1C/C=C\CCC(C(=O)N[C@@H](Cc2ccc(O)cc2)C(=O)N[C@@H](Cc2c[nH]c3ccccc23)C(=O)N[C@@H](CCCNC(=N)N)C(=O)N[C@@H](CCCCN)C(=O)N[C@@H](Cc2ccccc2)C(=O)NCC(=O)NCCOCC(=O)N[C@H](CCCCN)C(N)=O)NC(=O)[C@H](CCC(N)=O)NC(=O)[C@H](Cc2c[nH]c3ccccc23)NC(=O)[C@H]([C@@H](C)O)NC(=O)[C@H](CCCNC(=N)N)NC1=O` (some centres not stated) returned an IC50 of 100 to 1000 nM.

The compound `CC(=O)N[C@@H](CS)C(=O)N[C@@H](C)C(=O)N[C@@H](CC(=O)O)C(=O)N[C@@H](Cc1c[nH]c2ccccc12)C(=O)N[C@H](C(=O)N[C@@H](CS)C(=O)N[C@@H](Cc1ccc(O)cc1)C(=O)N[C@@H](Cc1c[nH]c2ccccc12)C(=O)N[C@@H](Cc1cnc[nH]1)C(=O)N[C@H](C(=O)N[C@@H](Cc1ccccc1)C(=O)NCC(=O)N1CCC[C@H]1C(=O)N[C@H](CCCCN)C(=O)O)[C@@H](C)O)C(C)C` had an IC50 below 500 nM.

Compound `CC(C)[C@H](NC(=O)[C@H](Cc1c[nH]c2ccccc12)N(C)C(=O)[C@H](CC(=O)O)NC(=O)[C@H](C)NC(=O)[C@@H](N)CS)C(=O)N[C@@H](CS)C(=O)N[C@@H](Cc1ccc(O)cc1)C(=O)N[C@@H](Cc1cccc2ccccc12)C(=O)N[C@@H](Cc1cnc[nH]1)C(=O)N[C@H](C(=O)N[C@@H](Cc1ccccc1)C(=O)O)[C@@H](C)O` showed an IC50 above 1000 nM.

`CC(=O)NC(=O)[C@@H](CCCCNC(=O)COCC(=O)NCCCC[C@@H](NCCC(=O)N[C@@H](CS)C(=O)N[C@@H](C)C(=O)N[C@@H](CC(=O)O)C(=O)N[C@@H](Cc1c[nH]c2ccccc12)C(=O)N[C@H](C(=O)N[C@@H](CS)C(=O)N[C@@H](Cc1ccc(O)cc1)C(=O)N[C@@H](Cc1c[nH]c2ccccc12)C(=O)N[C@@H](Cc1cnc[nH]1)C(=O)N[C@H](C(=O)N[C@@H](Cc1ccccc1)C(=O)NCC(=O)O)[C@@H](C)O)C(C)C)C(=O)NC(C)=O)NCCC(=O)N[C@@H](CS)C(=O)N[C@@H](C)C(=O)N[C@@H](CC(=O)O)C(=O)N[C@@H](Cc1c[nH]c2ccccc12)C(=O)N[C@H](C(=O)N[C@@H](CS)C(=O)N[C@@H](Cc1ccc(O)cc1)C(=O)N[C@@H](Cc1c[nH]c2ccccc12)C(=O)N[C@@H](Cc1cnc[nH]1)C(=O)N[C@H](C(=O)N[C@@H](Cc1ccccc1)C(=O)NCC(=O)O)[C@@H](C)O)C(C)C` registered an IC50 above 10000 nM.

Values taken from ChEMBL document CHEMBL4417631, “Oral peptide inhibitors of interleukin-23 receptor and their use to treat inflammatory bowel diseases” (2017).
